According to ChEMBL document CHEMBL1201862, “PubChem BioAssay data set” (2004):
Each block holds one compound with its values, some of them ahead of it. The source made the active and inactive calls.

Key:
[1] = IGROV1 cell killing – plate reader, dry powder samples, PAX8 inhibitor project, dose response (AID 743043); type: functional, cell-based; settings: IGROV-1
[2] = OVCAR8 cell viability loss – plate reader, dry powder samples, PAX8 project, dose response (AID 743197); type: functional, cell-based; settings: OVCAR-8
[3] = molecular target: Paired box protein Pax-8 (Homo sapiens, UniProt Q06710); assay: PAX8 transcriptional activity inhibition in RMG-I – RMG-I cells, luciferase, cherry-pick, dose response (AID 687027); type: functional, cell-based;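 further: luciferase reporter driven by Pax8 target thyroperoxidase promoter measured by SteadyGlo luminescence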
Paired box protein Pax-8, sequence (Q06710 whole entry): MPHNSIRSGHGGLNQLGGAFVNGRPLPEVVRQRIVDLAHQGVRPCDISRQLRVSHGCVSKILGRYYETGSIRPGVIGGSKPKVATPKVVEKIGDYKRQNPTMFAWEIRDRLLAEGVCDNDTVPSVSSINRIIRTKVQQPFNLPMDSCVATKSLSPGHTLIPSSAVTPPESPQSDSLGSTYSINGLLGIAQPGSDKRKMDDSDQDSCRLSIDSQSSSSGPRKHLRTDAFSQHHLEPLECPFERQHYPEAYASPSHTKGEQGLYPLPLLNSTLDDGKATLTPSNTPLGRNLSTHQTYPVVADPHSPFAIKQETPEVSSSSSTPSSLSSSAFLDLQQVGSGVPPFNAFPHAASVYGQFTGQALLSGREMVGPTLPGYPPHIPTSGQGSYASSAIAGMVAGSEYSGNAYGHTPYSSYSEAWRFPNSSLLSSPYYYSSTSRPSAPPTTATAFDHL

[4] = viability loss in LCL cells – cell-based, plate reader, dry powder, set 2, cytotoxicity control, dose response (AID 624367); type: functional
[5] = molecular target: Metabotropic glutamate receptor 3 (Rattus norvegicus, UniProt P31422); assay: inhibitors of rat mGlu3 Galpha15 signaling – TREx293 cells, calcium flux, mGlu3 NAM project, dose response (AID 651840); type: functional
Metabotropic glutamate receptor 3, sequence (P31422 whole entry): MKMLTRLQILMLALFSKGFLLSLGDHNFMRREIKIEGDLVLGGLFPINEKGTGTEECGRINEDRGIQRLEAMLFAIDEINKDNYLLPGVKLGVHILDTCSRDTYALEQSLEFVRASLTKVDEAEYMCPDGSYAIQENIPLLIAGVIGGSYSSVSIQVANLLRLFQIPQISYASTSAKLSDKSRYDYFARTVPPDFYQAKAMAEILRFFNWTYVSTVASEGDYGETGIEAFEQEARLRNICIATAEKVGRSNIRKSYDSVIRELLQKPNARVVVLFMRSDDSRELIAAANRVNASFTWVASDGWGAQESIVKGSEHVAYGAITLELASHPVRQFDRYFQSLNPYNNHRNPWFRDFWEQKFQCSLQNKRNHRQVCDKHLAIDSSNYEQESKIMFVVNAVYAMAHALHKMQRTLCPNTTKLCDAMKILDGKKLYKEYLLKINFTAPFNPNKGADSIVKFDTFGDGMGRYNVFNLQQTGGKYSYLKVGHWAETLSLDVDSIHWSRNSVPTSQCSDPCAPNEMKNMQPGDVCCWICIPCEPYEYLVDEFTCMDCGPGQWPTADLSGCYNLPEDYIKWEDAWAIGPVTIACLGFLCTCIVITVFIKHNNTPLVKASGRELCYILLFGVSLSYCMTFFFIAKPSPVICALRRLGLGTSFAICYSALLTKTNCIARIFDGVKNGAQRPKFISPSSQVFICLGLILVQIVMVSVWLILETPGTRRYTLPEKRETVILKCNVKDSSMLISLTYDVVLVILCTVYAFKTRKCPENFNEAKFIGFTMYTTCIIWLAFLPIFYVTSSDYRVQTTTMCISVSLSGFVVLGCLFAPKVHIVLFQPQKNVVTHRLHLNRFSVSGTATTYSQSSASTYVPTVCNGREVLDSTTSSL

[6] = viability loss in HepG2 hepatoma cells – cell-based, cherry-picks, set 5, cytotoxicity control, dose response (AID 1053118); type: functional
[7] = viability loss in HEK293 kidney cells – cell-based, cherry-picks, set 5, cytotoxicity control, dose response (AID 1053117); type: functional
[8] = A549 cell cytotoxicity, dose response, cytotoxicity control, plate reader, cherry-pick, antagonist series (AID 743412); type: functional, cell-based
[9] = blockade of melanocortin 4 receptor signaling – cell-based, plate reader, cherry pick, counter-screen for LGR2 antagonist project, dose response (AID 743444); type: functional;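 further: transfected HEK 293 cells stimulated with alpha-MSH peptide; potency of inhibitors of the alpha-MSH evoked signal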
[10] = toxicity toward HepG2 liver cells – cell-based, plate reader, cherry-pick, antagonist series, cytotoxicity control, dose response (AID 743416); type: functional
[11] = viability loss in HEK293 cells – cell-based, plate reader, cherry-picked samples, cytotoxicity control, dose response (AID 743446); type: functional
[12] = inhibition of bursicon-driven LGR2 cAMP signaling – cell-based, HEK293, CRE-luciferase reporter, cherry pick, dose response (AID 743342); type: functional
[13] = molecular target: T1, High affinity choline transporter 1 (Homo sapiens, UniProt Q9GZV3); assay: inhibition of SLC5A7-mediated choline transport – cell-based, HEK-293 hCHT, [3H]-choline uptake, dose response (AID 652177); type: functional
T1 sequence (Q9GZV3 whole entry): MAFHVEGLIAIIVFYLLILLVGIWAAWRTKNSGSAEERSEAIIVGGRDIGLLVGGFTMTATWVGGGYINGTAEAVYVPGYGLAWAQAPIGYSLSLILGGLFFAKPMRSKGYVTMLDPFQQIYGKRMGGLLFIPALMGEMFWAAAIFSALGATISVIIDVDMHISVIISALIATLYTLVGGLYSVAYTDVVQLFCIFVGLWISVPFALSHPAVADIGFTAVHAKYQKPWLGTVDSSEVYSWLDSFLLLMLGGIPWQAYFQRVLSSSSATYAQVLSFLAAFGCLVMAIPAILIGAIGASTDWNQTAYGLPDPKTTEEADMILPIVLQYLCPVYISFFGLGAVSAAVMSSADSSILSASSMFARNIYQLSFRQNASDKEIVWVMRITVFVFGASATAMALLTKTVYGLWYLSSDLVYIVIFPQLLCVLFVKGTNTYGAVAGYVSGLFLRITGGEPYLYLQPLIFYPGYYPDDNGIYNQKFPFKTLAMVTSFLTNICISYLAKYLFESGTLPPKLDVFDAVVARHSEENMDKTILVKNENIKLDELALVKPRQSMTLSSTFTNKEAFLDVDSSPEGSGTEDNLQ

[14] = molecular target: Potassium channel subfamily K member 3 (Homo sapiens, UniProt O14649); assay: inhibition of human KCNK3 channel flux – CHO cells, FluxOR thallium flux, SAR follow-up (AID 652212); type: functional
Potassium channel subfamily K member 3, sequence (O14649 whole entry): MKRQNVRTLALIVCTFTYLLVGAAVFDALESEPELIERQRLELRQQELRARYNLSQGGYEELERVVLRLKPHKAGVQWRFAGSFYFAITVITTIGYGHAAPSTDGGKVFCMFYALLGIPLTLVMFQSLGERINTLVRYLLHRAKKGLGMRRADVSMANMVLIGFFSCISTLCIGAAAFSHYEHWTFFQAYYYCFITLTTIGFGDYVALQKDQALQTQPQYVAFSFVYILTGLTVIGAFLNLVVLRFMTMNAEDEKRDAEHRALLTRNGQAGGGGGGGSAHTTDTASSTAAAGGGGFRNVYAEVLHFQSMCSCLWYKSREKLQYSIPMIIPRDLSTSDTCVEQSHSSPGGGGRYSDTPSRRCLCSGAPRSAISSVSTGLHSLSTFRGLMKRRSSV

[15] = molecular target: Potassium channel subfamily K member 9 (Homo sapiens, UniProt Q9NPC2); assay: KCNK9 flux blockade, concentration-response – cell-based, FluxOR thallium flux, selectivity assay for TASK1 inhibitor project, SAR follow-up (AID 652211); type: functional;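 further: potency is for inhibitors of the channel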
Potassium channel subfamily K member 9, sequence (Q9NPC2 whole entry): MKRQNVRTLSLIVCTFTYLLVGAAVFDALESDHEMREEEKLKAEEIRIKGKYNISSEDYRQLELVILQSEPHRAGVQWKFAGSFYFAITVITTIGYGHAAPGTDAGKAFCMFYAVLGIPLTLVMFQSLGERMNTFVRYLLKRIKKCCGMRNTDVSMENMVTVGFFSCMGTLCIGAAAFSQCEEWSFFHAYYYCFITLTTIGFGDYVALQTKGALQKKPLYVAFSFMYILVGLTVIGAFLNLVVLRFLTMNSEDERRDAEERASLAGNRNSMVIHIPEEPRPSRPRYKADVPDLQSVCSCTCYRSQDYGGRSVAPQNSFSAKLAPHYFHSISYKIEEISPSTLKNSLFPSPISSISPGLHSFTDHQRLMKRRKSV

[16] = liver cell line viability loss – HepG2, luminescence plate reader, powder samples, set 2, cytotoxicity control, dose response (AID 651860); type: functional, cell-based
[17] = cytotoxicity in MITF-independent A375 cells – cell-based, CellTiter-Glo luminescence, dry powder, set 4, counter-screen for MITF inhibitor project, dose response (AID 624364); type: functional; settings: A-375;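 further: A375 melanoma cells are MITF independent so this is a counter screen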
[18] = viability loss in MITF-independent A375 cells – cell-based, CellTiter-Glo luminescence, dry powder, set 2, counter-screen for MITF inhibitor project, dose response (AID 624489); type: functional; settings: A-375;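 further: actives are compounds lowering A375 viability meaning general cytotoxicity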

SMILES: COc1cccc(-c2ccc([C@H]3[C@@H](CO)N(C(=O)c4ccccn4)[C@H]3C#N)cc2)c1
AC50 [1]: 68.1 µM (active)
AC50 [2]: 39.2 µM (active)
AC50 [3]: 7.31 µM (active)

SMILES: Cc1cc(C(=O)Nc2ccc3c(c2)C(=O)N(C)[C@@H]2CC[C@H](CC(=O)NCc4ccc(-c5ccccc5)cc4)O[C@@H]2CO3)no1
AbsAC35 [4]: 211.39 µM

IC50 [5]: 3.13 µM
SMILES: COc1ccc(C#Cc2ccc(C(=O)N3CCC(=O)C(C)(C)C3)cc2)cc1

SMILES: CO[C@@H]1CN(C)C(=O)c2cc(NC(=O)Nc3cc(Cl)cc(Cl)c3)ccc2OC[C@H](C)NC[C@@H]1C
AC50 [6]: 13.1 µM (active)
AC50 [7]: 15.8 µM (active)

SMILES: COc1ccc(NC(=O)Nc2ccc3c(c2)C(=O)N([C@H](C)CO)C[C@H](C)[C@H](CN(C)CC2CCCCC2)OCCCC[C@H](C)O3)cc1
AC50 [8]: 17.9 µM (active)
AC50 [9]: 42.7 µM (active)
AC50 [10]: 13.7 µM (active)
AC50 [11]: 40.3 µM (active)
AC50 [12]: 38.9 µM (active)

IC50 [13]: 6.81 µM (active)
SMILES: CCn1cc(CNC(=O)c2ccc(OC)c(OC3CCN(C(C)C)CC3)c2)cn1

IC50 [14]: 0.148 µM (active)
IC50 [15]: 19.2 µM (active)
SMILES: COc1cccc(OC)c1C(=O)Nc1cccc(NC(=O)c2cccc(C)c2)c1

SMILES: Cc1ccc(S(=O)(=O)Nc2cc(C(C(=O)OC(C)C)C(=O)C(F)(F)F)c(O)c3ccccc23)cc1 (stereo not drawn)
AC50 [16]: > 52 µM (inactive)

SMILES: C=CCNC1=C(NCCN(CC)CC)C(=O)c2ccccc2C1=O
AC50 [17]: 36 µM (active)
AC50 [18]: 17.4 µM (active)
